Data reported in patent US11053204B2, “Pyrimidinyloxy benzene derivatives as herbicides” (FMC Corporation, priority 2015, dated 2021).

Legend:
Format in all cases: in vivo
[1] = tested on: ragweed (common ragweed, Ambrosia elatior); assay: Test C postemergence, plant response rating; settings: Ambrosia artemisiifolia, post-emergence
How it was run: (§1)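 Pre-emergence: seeds sown in loam soil–sand blend or silt loam and sprayed with test chemicals in a non-phytotoxic solvent mixture with surfactant. Post-emergence: plants 2 to 18 cm (1- to 4-leaf stage) in peat-based potting medium, same formulation. Greenhouse 13 to 15 d; visual rating 0 (no effect) to 100 (complete control) versus controls.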

[2] = tested on: morningglory (Ipomoea coccinea); assay: Test C postemergence, plant response rating; settings: Ipomoea, post-emergence
How it was run: as §1

[3] = tested on: oilseed rape (Brassica napus); assay: Test C postemergence, plant response rating; settings: Brassica napus, post-emergence
How it was run: as §1

[4] = tested on: waterhemp (common waterhemp, Amaranthus rudis); assay: Test C postemergence, plant response rating
How it was run: as §1

[5] = tested on: velvetleaf (Abutilon theophrasti); assay: Test C postemergence, plant response rating; settings: Abutilon theophrasti, post-emergence
How it was run: as §1

kochia (Kochia scoparia) [6] = assay: Test C postemergence, plant response rating; settings: Bassia scoparia, post-emergence
How it was run: as §1

[7] = tested on: sedge, umbrella (small-flower umbrella sedge, Cyperus difformis); assay: Test B flooded paddy test, plant response rating; settings: Cyperus difformis, 312 h; 250 g ai/ha; Flood; scale of 0 to 100 where 0 is no effect and 100 is complete control; 13 to 15 days
How it was run: (§2)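 Visual injury ratings against untreated controls, taken 13 to 15 days after compound was added to paddy water standing 3 cm above the soil.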

[8] = tested on: ducksalad (Heteranthera limosa); assay: Test B flooded paddy test, plant response rating; settings: Heteranthera limosa, 312 h; 250 g ai/ha; Flood; scale of 0 to 100 where 0 is no effect and 100 is complete control; 13 to 15 days
How it was run: as §2

[9] = tested on: barnyardgrass (Echinochloa crus-galli); assay: Test B flooded paddy test, plant response rating; settings: Echinochloa crus-galli, 312 h; 250 g ai/ha; Flood; scale of 0 to 100 where 0 is no effect and 100 is complete control; 13 to 15 days
How it was run: as §2

rice (Oryza sativa) = assay: Test B flooded paddy test, plant response rating; settings: Oryza sativa, 312 h; 250 g ai/ha; Flood; scale of 0 to 100 where 0 is no effect and 100 is complete control; 13 to 15 days
How it was run: as §2

corn (Zea mays) = assay: Test A postemergence, visual injury rating; settings: 0 to 100 scale, 0 is no effect, 100 is complete control, approximately 10 days
How it was run: (§3)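 Compounds in non-phytotoxic solvent with surfactant applied as soil spray preemergence, or postemergence to plants 2-10 cm at one- to two-leaf stage, in loam/sand. After approximately 10 days in greenhouse, injury rated visually versus untreated controls, 0 (no effect) to 100 (complete control).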

[10] = tested on: pigweed (Amaranthus retroflexus); assay: Test A postemergence, visual injury rating; settings: 0 to 100 scale, 0 is no effect, 100 is complete control, approximately 10 days
How it was run: as §3

[11] = tested on: wheat (Triticum aestivum); assay: Test A postemergence, visual injury rating; settings: 0 to 100 scale, 0 is no effect, 100 is complete control, approximately 10 days
How it was run: as §3

[12] = tested on: ragweed (common ragweed, Ambrosia elatior); assay: Test A postemergence, visual injury rating; settings: 0 to 100 scale, 0 is no effect, 100 is complete control, approximately 10 days
How it was run: as §3

[13] = tested on: Italian ryegrass (Lolium multiflorum); assay: Test A postemergence, visual injury rating; settings: 0 to 100 scale, 0 is no effect, 100 is complete control, approximately 10 days
How it was run: as §3

kochia (Kochia scoparia) [14] = assay: Test A postemergence, visual injury rating; settings: 0 to 100 scale, 0 is no effect, 100 is complete control, approximately 10 days
How it was run: as §3

[15] = tested on: giant foxtail (Setaria faberii); assay: Test A postemergence, visual injury rating; settings: 0 to 100 scale, 0 is no effect, 100 is complete control, approximately 10 days
How it was run: as §3

[16] = 62 g ai/ha, scale 0 to 100 (0 no effect, 100 complete control)
[17] = 125 g ai/ha, scale 0 to 100 (0 no effect, 100 complete control)

O=C(CCC(F)(F)F)c1c(Cl)cccc1Oc1ncc(Cl)cn1 [Compound 107, 1-[2-chloro-6-[(5-chloro-2-pyrimidinyl)oxy]phenyl]-4,4,4-trifluoro-1-butanone]
pest or weed control at 16 g/ha ([1]; 16 g ai/ha, scale of 0 to 100): 25%
pest or weed control at 31 g/ha ([1]; 31 g ai/ha, scale 0 to 100): 35%
pest or weed control at 62 g/ha [1, 16]: 35%
pest or weed control at 125 g/ha [1, 17]: 45%
pest or weed control at 16 g/ha ([2]; 16 g ai/ha, scale of 0 to 100): 20%
pest or weed control at 31 g/ha ([2]; 31 g ai/ha, scale 0 to 100): 60%
pest or weed control at 62 g/ha [2, 16]: 80%
pest or weed control at 125 g/ha [2, 17]: 95%
plant injury at 16 g/ha ([3]; 16 g ai/ha, scale of 0 to 100): 65%
plant injury at 31 g/ha ([3]; 31 g ai/ha, scale 0 to 100): 80%
plant injury at 62 g/ha [3, 16]: 95%
plant injury at 125 g/ha [3, 17]: 98%
Plant response rating, Waterhemp ([4]; 16 g ai/ha, scale of 0 to 100): 95
Plant response rating, Waterhemp ([4]; 31 g ai/ha, scale 0 to 100): 98
Waterhemp plant response rating [4, 17]: 100
pest or weed control at 16 g/ha ([5]; 16 g ai/ha, scale of 0 to 100): 60%
pest or weed control at 31 g/ha ([5]; 31 g ai/ha, scale 0 to 100): 65%
pest or weed control at 125 g/ha [5, 17]: 90%
pest or weed control at 62 g/ha ([5]; rate not given, scale 0 to 100, read-out: Plant response rating, Velvetleaf): 75%
pest or weed control at 16 g/ha (kochia (Kochia scoparia) [6]; 16 g ai/ha, scale of 0 to 100): 80%
pest or weed control at 31 g/ha (kochia (Kochia scoparia) [6]; 31 g ai/ha, scale 0 to 100): 85%
pest or weed control at 62 g/ha (kochia (Kochia scoparia) [6]; [16]): 95%
pest or weed control at 125 g/ha (kochia (Kochia scoparia) [6]; [17]): 98%
pest or weed control at 250 g/ha [7]: 95%
pest or weed control at 250 g/ha [8]: 95%
pest or weed control at 250 g/ha [9]: 50%
plant injury at 250 g/ha (rice (Oryza sativa)): 35%
Corn plant response rating (corn (Zea mays); 31 g ai/ha): 30
Corn plant response rating (corn (Zea mays); 125 g ai/ha): 60
Pigweed plant response rating ([10]; 31 g ai/ha): 100
Pigweed plant response rating ([10]; 125 g ai/ha): 100
Wheat plant response rating ([11]; 31 g ai/ha): 0
Wheat plant response rating ([11]; 125 g ai/ha): 30
Ragweed plant response rating ([12]; 31 g ai/ha): 20
Ragweed plant response rating ([12]; 125 g ai/ha): 30
Ryegrass, Italian plant response rating ([13]; 31 g ai/ha): 20
Ryegrass, Italian plant response rating ([13]; 125 g ai/ha): 80
Kochia plant response rating (kochia (Kochia scoparia) [14]; 31 g ai/ha): 90
Kochia plant response rating (kochia (Kochia scoparia) [14]; 125 g ai/ha): 90
Foxtail, Giant plant response rating ([15]; 31 g ai/ha): 70
Foxtail, Giant plant response rating ([15]; 125 g ai/ha): 90
